Test results from paper PMC11940079, “Identification of a Possible Endocannabinoid-Mediated Mechanism of Action of Cetylated Fatty Acids” (Biomolecules, 2025).

Tests used:
[1] = target: T1, human monoacylglycerol lipase (hMAGL) (Homo sapiens, UniProt Q99685); experiment: spectrophotometric assay with 4-nitrophenyl acetate, single-point % inhibition at […]; format: biochemical
T1 construct: gene MGLL
T1 sequence (Q99685 1-303): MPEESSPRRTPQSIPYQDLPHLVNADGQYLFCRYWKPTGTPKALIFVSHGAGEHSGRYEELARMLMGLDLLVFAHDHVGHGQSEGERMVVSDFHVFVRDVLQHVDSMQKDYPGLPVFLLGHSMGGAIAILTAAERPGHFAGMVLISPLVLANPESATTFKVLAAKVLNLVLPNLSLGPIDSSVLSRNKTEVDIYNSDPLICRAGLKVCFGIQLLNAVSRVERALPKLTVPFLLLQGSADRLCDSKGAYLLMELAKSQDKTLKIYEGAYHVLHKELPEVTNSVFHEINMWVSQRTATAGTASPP

[2] = target: T1, human monoacylglycerol lipase (hMAGL); experiment: spectrophotometric assay with 4-nitrophenyl acetate, recombinant human MAGL, dose-response; format: biochemical

| Compound | spectrophotometric assay with 4-nitrophenyl acetate, single-point % inhibition a [1] | IC50 [2] [µM] |
| --- | --- | --- |
| CCCCCC/C=C\CCCCCCCC(=O)OCCCCCCCCCCCCCCCC [3h, Hexadecyl (Z)-hexadec-9-enoate] | its close analogue 3h (cetyl palmitoleate), possessing the double bond at the same distance from the ester group as 3g, proved to be equally active |  |
| CCCCCCCC/C=C\CCCCCCCC(=O)OCCCCCCCCCCCCCCCC [3i, Hexadecyl oleate] | their longer analogue 3i (cetyl oleate) displayed slightly weaker potency in the same test |  |
| CCCCCCCCCCCCCCCCOC(=O)CCCCCCCCC [3b, Hexadecyl decanoate] |  | 36 ± 4 |
